As usually defined, the IC50 is the midpoint of a concentration-inhibition curve.

The values below come from US20230382910A1, “HETEROARYL COMPOUNDS FOR THE TREATMENT OF PAIN” (VERTEX PHARMACEUTICALS INCORPORATED, priority 2022, published 2023).

The target in this test is human NaV 1.8 (Homo sapiens, UniProt Q9Y5Y9). Kind of test: E-VIPR Assay Detecting and Measuring NaV Inhibition Properties. Particulars: HEK cells expressing a truncated form of human NaV 1.8; electrical stimulation, membrane potential FRET dyes; read-out: measured IC50 value in the E-VIPR Assay. It is filed as cell-based. An excerpt: E-VIPR Assay Detecting and Measuring NaV Inhibition Properties
Sequence of human NaV 1.8 (Q9Y5Y9 126-399 limits assumed): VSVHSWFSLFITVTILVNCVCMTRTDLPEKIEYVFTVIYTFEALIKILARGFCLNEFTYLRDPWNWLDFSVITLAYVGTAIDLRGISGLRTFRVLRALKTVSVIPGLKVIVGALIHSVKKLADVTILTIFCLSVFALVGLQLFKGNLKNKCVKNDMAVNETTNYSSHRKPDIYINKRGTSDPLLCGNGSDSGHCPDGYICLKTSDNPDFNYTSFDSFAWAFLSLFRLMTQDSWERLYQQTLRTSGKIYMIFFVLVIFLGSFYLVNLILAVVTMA
Sequence of human NaV 1.8 (Q9Y5Y9 660-890 limits assumed): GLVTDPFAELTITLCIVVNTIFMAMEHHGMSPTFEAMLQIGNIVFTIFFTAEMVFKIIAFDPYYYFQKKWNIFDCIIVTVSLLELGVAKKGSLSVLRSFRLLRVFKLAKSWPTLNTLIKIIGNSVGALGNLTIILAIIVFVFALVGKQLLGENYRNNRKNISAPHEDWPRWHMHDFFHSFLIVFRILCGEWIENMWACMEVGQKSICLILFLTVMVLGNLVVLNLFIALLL
Sequence of human NaV 1.8 (Q9Y5Y9 1148-1722 limits assumed): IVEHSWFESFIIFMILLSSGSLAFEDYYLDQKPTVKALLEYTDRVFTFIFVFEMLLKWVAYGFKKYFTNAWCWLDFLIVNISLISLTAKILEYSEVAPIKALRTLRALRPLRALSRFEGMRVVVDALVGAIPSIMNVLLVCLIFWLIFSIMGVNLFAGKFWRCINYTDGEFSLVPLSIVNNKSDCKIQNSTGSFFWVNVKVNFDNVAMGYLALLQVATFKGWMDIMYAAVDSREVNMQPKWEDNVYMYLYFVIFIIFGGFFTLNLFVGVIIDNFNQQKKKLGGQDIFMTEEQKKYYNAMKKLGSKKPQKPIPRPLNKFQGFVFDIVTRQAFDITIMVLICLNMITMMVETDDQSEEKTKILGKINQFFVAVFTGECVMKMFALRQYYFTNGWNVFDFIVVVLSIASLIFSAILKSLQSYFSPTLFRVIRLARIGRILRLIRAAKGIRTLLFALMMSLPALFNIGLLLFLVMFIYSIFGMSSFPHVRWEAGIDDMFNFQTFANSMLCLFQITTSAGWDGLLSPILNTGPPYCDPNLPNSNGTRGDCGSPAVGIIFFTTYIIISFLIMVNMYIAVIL
Sodium ion channels are voltage-dependent proteins that can be activated by inducing membrane voltage changes by applying electric fields. The electrical stimulation instrument and methods of use, referred to as E-VIPR, are described in International Publication No. WO 2002/008748 A3 and C.-J. Huang et al. Characterization of voltage-gated sodium channel blockers by electrical stimulation and fluorescence detection of membrane potential, 24 Nature Biotech. 439-46 (2006), both of which are incorporated by reference in their entirety. The instrument comprises a microtiter plate handler, an optical system for exciting the coumarin dye while simultaneously recording the coumarin and oxonol emissions, a waveform generator, a current- or voltage-controlled amplifier, and parallel electrode pairs that are inserted into assay plate wells. Under integrated computer control, this instrument passes user-programmed electrical stimulus protocols to cells within the wells of the microtiter plate.
16-20 hours prior to running the assay on E-VIPR, HEK cells expressing a truncated form of human NaV 1.8 with full channel activity were seeded into microtiter 384-well plates, pre-coated with matrigel, at a density of 25,000 cells per well. 2.5-5% KIR2.1 BacMam virus was added to the final cell suspension before seeding into cell plates. HEK cells were grown in Dulbecco's Modified Eagle's Medium (DMEM) supplemented with 10% FBS (Fetal Bovine Serum, qualified; Sigma #F4135), 1% NEAA (Non-Essential Amino Acids, Gibco #11140), 1% HEPES (Gibco #15630), 1% Pen-Strep (Penicillin-Streptomycin; Gibco #15140) and 5 μg/ml Blasticidin (Gibco #R210-01). Cells were expanded in 5-layer CellSTACK culture chambers or cell culture flasks with vented caps, with 90-95% humidity and 5% CO2.
Compound Loading Buffer (2× concentration): Na/TMA Cl Bath1 Buffer containing HS (omitted in experiments run in the absence of human serum (HS)) 50%, VABSC-1 1 mM, BSA 0.2 mg/ml (in Bath-1), KCl 9 mM, DMSO 0.625%.
Assay Protocol (7 Key Steps):
1) To reach the final concentration in each well, 375 nL of each compound was pre-spotted (in neat DMSO) into polypropylene compound plates at 240× desired final concentration from an intermediate stock concentration of 0.075 mM, in an 11-point dose response, 3-fold dilution, resulting in a top dose of 300 nM final concentration in the cell plate. Vehicle control (neat DMSO), and positive control (an established NaV1.8 inhibitor, 25 μM final in assay in DMSO) were added manually to the outermost columns of each plate respectively. The compound plate was backfilled with 45 μL per well of Compound Loading Buffer resulting in a 240-fold dilution of compound following a 1:1 transfer of compound into the cell plate (see Step 6). Final DMSO concentration for all wells in the assay was 0.625% (0.75% DMSO was supplemented to the Compound Loading Buffer for a final DMSO concentration of 0.625%). This assay dilution protocol was adjusted to enable a higher dose range to be tested in the presence of HS or if the final assay volume was altered.
2) Hexyl Dye Solution was prepared.
3) Cell plates were prepared. On the day of the assay, the media was aspirated, and the cells were washed three times with 80 μL of Bath-1 buffer, maintaining 25 μL residual volume in each well.
4) 25 μL per well of Hexyl Dye Solution was dispensed into the cell plates. The cells were incubated for 20 minutes at room temperature or ambient conditions in darkness.
5) 45 μL per well of Compound Loading Buffer was dispensed into compound plates.
6) The cell plates were washed three times with 80 μL per well of Bath-1 Buffer, leaving 25 µL of residual volume. Then 25 μL per well from compound plate was transferred to each cell plate. The mixture was incubated for 30 minutes at room temperature/ambient conditions. […]

Regarding `Cc1cc(C)c(C(C)C)cc1-c1cc(=O)c2c(C(N)=O)nccc2[nH]1` [Compound 234, 2-(5-isopropyl-2,4-dimethyl-phenyl)-4-oxo-1H-1,6-naphthyridine-5-carboxamide], the IC50 fell in the range of 0.5 to 2 µM.

Consider `CC1(C)CCC(C)(C)c2cc(-c3cc(=O)c4c(C(N)=O)nccc4[nH]3)ccc21` [Compound 239, 4-oxo-2-(1,1,4,4-tetramethyltetralin-6-yl)-1H-1,6-naphthyridine-5-carboxamide], for which the IC50 fell in the range of 0.5 to 2 µM.

In the case of `Cc1nc(C(C)(C)C)c(C)nc1-c1cc(=O)c2c(C(N)=O)nccc2[nH]1` [Compound 246, 2-(5-tert-butyl-3,6-dimethyl-pyrazin-2-yl)-4-oxo-1H-1,6-naphthyridine-5-carboxamide], the half-inhibitory concentration (IC50) lay within 0.5 to 2 µM.

Turning to `CC(C)(C)c1cc(F)c(-c2cc(O)c3c(C(N)=O)nccc3n2)c(F)c1` [Compound 247, 2-(4-(tert-butyl)-2,6-difluorophenyl)-4-hydroxy-1,6-naphthyridine-5-carboxamide], the IC50 lay in the range of 0.5 to 2 µM.

Turning to `Cc1nc(-c2ccccc2)c(Cl)cc1-c1cc(=O)c2c(C(N)=O)nccc2[nH]1` [Compound 273, 2-(5-chloro-2-methyl-6-phenyl-3-pyridyl)-4-oxo-1H-1,6-naphthyridine-5-carboxamide], the IC50 lay in the range of 0.5 to 2 µM.

For the compound `Cc1nc(C2(C)CC2)c(Cl)cc1-c1cc(=O)c2c(C(N)=O)nccc2[nH]1` [Compound 286, 2-[5-chloro-2-methyl-6-(1-methylcyclopropyl)-3-pyridyl]-4-oxo-1H-1,6-naphthyridine-5-carboxamide], the IC50 lay in the range of 0.5 to 2 µM.

In the case of `Cc1nc(C(C)(C)CO)c(Cl)cc1-c1cc(=O)c2c(C(N)=O)nccc2[nH]1` [Compound 297, 2-[5-chloro-6-(2-hydroxy-1,1-dimethyl-ethyl)-2-methyl-3-pyridyl]-4-oxo-1H-1,6-naphthyridine-5-carboxamide], the IC50 was in the range of 2 to 5 µM.

Regarding `Cc1cc(C(C)(C)C)ccc1-c1cc(=O)c2nc(OCCN(C)C)ccc2[nH]1` [Compound 304, 2-(4-tert-butyl-2-methyl-phenyl)-6-[2-(dimethylamino)ethoxy]-1H-1,5-naphthyridin-4-one], the IC50 is 0.5 to 2 µM.

Consider `COc1cc(C(C)C)cc(C)c1-c1cc(=O)c2ccccc2[nH]1` [Compound 337, 2-(4-isopropyl-2-methoxy-6-methyl-phenyl)-1H-quinolin-4-one], for which the IC50 was 0.5 to 2 µM.

On to `CC(C)(C)c1ccc(-c2cc(=O)c3cnccc3[nH]2)c(CCCO)c1` [Compound 346, 2-[4-tert-butyl-2-(3-hydroxypropyl)phenyl]-1H-1,6-naphthyridin-4-one], for which the IC50 lay within 2 to 5 µM.

As for `CC(C)(C)c1ccc(-c2[nH]c3ccncc3c(=O)c2Br)c(CCCO)c1` [Compound 347, 3-bromo-2-[4-tert-butyl-2-(3-hydroxypropyl)phenyl]-1H-1,6-naphthyridin-4-one], the IC50 fell in the range of 2 to 5 µM.

`CC(C)CN(CC(C)C)c1nc2ccccc2cc1-c1cc(=O)c2c(C(N)=O)nccc2[nH]1` [Compound 351, 2-[2-(diisobutylamino)-3-quinolyl]-4-oxo-1H-1,6-naphthyridine-5-carboxamide]: the IC50 was in the range of 2 to 5 µM.

`CCCN(CCC)c1nc2ccccc2cc1-c1cc(=O)c2c(C(N)=O)nccc2[nH]1` [Compound 352, 2-[2-(dipropylamino)-3-quinolyl]-4-oxo-1H-1,6-naphthyridine-5-carboxamide]: the half-inhibitory concentration (IC50) lay within 2 to 5 µM.

In the case of `CCCCN(CC)c1nc2ccccc2cc1-c1cc(=O)c2c(C(N)=O)nccc2[nH]1` [Compound 353, 2-[2-[butyl(ethyl)amino]-3-quinolyl]-4-oxo-1H-1,6-naphthyridine-5-carboxamide], the IC50 lay within 0.5 to 2 µM.

As to `Cc1cc(C(C)(C)CO)c(Cl)cc1-c1cc(=O)c2c(C(N)=O)nccc2[nH]1` [Compound 356, 2-[5-chloro-4-(2-hydroxy-1,1-dimethyl-ethyl)-2-methyl-phenyl]-4-oxo-1H-1,6-naphthyridine-5-carboxamide], the IC50 fell in the range of 2 to 5 µM.

Consider `Cc1nc(C(C)(C)C(=O)O)c(Cl)cc1-c1cc(=O)c2c(C(N)=O)nccc2[nH]1` [Compound 359, 2-[5-(5-carbamoyl-4-oxo-1H-1,6-naphthyridin-2-yl)-3-chloro-6-methyl-2-pyridyl]-2-methyl-propanoic acid], for which the IC50 is 2 to 5 µM.

On to `CCOC(=O)c1nc(C)c(-c2nccc3[nH]c(-c4cc(Cl)c(C(C)(C)C)cc4C)cc(=O)c23)o1` [Compound 390, ethyl 5-[2-(4-tert-butyl-5-chloro-2-methyl-phenyl)-4-oxo-1H-1,6-naphthyridin-5-yl]-4-methyl-oxazole-2-carboxylate], for which the half-inhibitory concentration (IC50) lay in the range of 0.5 to 2 µM.

As to `Cn1nc(C(C)(C)C)cc1-c1cc(=O)c2cc(F)ccc2[nH]1` [Compound 417, 2-(5-tert-butyl-2-methyl-pyrazol-3-yl)-6-fluoro-1H-quinolin-4-one], the 50% inhibitory concentration (IC50) is 0.5 to 2 µM.

Turning to `[2H]C([2H])([2H])C(c1cc(C)c(-c2cc(=O)c3c(C(N)=O)nccc3[nH]2)cc1Cl)(C([2H])([2H])[2H])C([2H])([2H])O` [Compound 427, 2-(5-chloro-4-(1-hydroxy-2-(methyl-d3)propan-2-yl-1,1,3,3,3-d5)-2-methylphenyl)-4-oxo-1,4-dihydro-1,6-naphthyridine-5-carboxamide], the IC50 fell in the range of 2 to 5 µM.
